According to publication PMC10011554, “BET inhibitor trotabresib in heavily pretreated patients with solid tumors and diffuse large B-cell lymphomas” (Nature Communications, 2023):

Experiment: Adverse events, DLTs, MTD and RP2D in phase I study CC-90010-ST-001 (NCI CTCAE v4.03)
Type: in vivo
Protocol: The primary endpoints of the study were the safety and tolerability of trotabresib, as well as the MTD and/or RP2D of trotabresib. Safety was assessed using the National Cancer Institute Common Terminology Criteria for Adverse Events v4.03[53].
The decision to evaluate additional subjects within a dose cohort, a higher dose cohort, intermediate dose cohorts, smaller dose increments, alternate dosing schedules, or declare an MTD will also be determined by the SRC, based on their review of clinical and laboratory safety […]
7.2.4. Definition of a Subject Evaluable for DLT
After the first dose is administered in any cohort during dose escalation, subjects in each cohort […]
more than one subject per day will be enrolled in a given dose escalation cohort.
A subject evaluable for DLT is defined as one that: […]
without experiencing a DLT,
Subjects non-evaluable for DLT will be replaced. Additional subjects within any dose cohort may be enrolled at the discretion of the SRC. Intra-subject dose escalation will not be allowed during the DLT assessment period.
7.2.5. Definition of Maximum Tolerated Dose (MTD) […]
of MTD is described in Section 7.2.2.
A variable dose cohort (eg, less frequent dosing) may be evaluated to accurately determine the MTD at the discretion of the SRC.
7.2.6. Definition of Dose-Limiting Toxicity (DLT) […]
used as a guide for the grading of severity of adverse events. A DLT is defined as any of the following toxicities occurring within the DLT assessment unless the event can clearly be […]
Do se-limiting toxicities are described below:
• Hyperglycemia meeting any of the following criteria:
− Grade 3 or greater fasting hyperglycemia (> 250 mg/dL) lasting > 4 days despite optimal medical treatment
(1 picture or pasted object on this page, not shown here)
− Hyperglycemia associated with diabetic ketoacidosis or nonketotic hyperosmolar coma regardless of glucose level
− Hyperglycemia that necessitates dose reduction despite dose interruption and resolution to ≤ grade 1 hyperglycemia within two weeks as described in […]
• Any Grade 4 non-hematologic toxicity of any duration
• Any non-hematologic toxicity Grade ≥ 3 EXCEPT for:
− Grade 3 diarrhea, nausea, or vomiting of ≤ 3 days duration (with optimal medical […]
− Grade 3 rash of the acneiform, pustular or maculopapular type which resolves to […]
level with resumption of study drug at the same dose (with optimal medical […]
− Grade 3 fatigue which resolves to Grade ≤ 2 within 7 days of study drug […]
the same dose (with optimal medical management).
• Hematological toxicities as follows:
− Grade 4 neutropenia lasting > 7 days
− Grade 4 thrombocytopenia lasting > 7 days, Grade ≥ 3 thrombocytopenia with clinically significant bleeding
• Any AE, Grade ≥ 2 not specified or exempt above, unless clearly determined to be unrelated to the drug, necessitating dose-level reduction during Cycle 1.
Isolated laboratory changes without associated clinical signs or symptoms (eg, hypomagnesemia, hypermagnesemia, hypoalbuminemia, hypophosphatemia, lymphocyte count increased or decreased) may not be included in this definition. These findings will be discussed and reviewed […]
7.2.7. Criteria for Dose Escalation in the Next Cohort of Subjects
During Part A, the dose escalation criteria are described in Section 7.2.2.
7.2.8. Definition of Stopping Criteria
During Part A, the dose escalation stopping rules are in Section 7.2.2.
7.2.9. Permitted Study Drug Adjustments
Dose reductions are permitted in any cycle, including Cycle 1.
• Dose reductions that occur in Cycle 1 during dose escalation will constitute DLT as […]

[1] = part C, cycles 1 and 2, fasted state (n = 39)
[2] = part C, cycles 1 and 2, fed state (n = 35)

Cn1cc(-c2cc(S(C)(=O)=O)ccc2OCC2CC2)c2ccccc2c1=O [trotabresib]
TRAE: Hypertension (part B DLBCL, grade 4): 0%
TRAE: Hyponatremia (part B DLBCL, grade 4): 0%
TRAE: Hypophosphatemia (part B DLBCL, grade 4): 0%
TRAE: Nausea (part B DLBCL, grade 4): 0%
TRAE: Neutropenia (part B DLBCL, grade 4): 13.04%
TRAE: Platelet count decreased (part B DLBCL, grade 4): 0%
TRAE: Stomatitis (part B DLBCL, grade 4): 0%
TRAE: Thrombocytopenia (part B DLBCL, grade 4): 60.87%
TRAE: Vomiting (part B DLBCL, grade 4): 0%
grade 3/4 TRAE anemia (part B R/R DLBCL (N = 23)): 26%
grade 3/4 TRAE neutropenia (part B R/R DLBCL (N = 23)): 26%
grade 3/4 TRAE thrombocytopenia (part B R/R DLBCL (N = 23)): 78%
patients who died due to TEAEs not considered related to study treatment (part B R/R DLBCL (N = 23)): 9%
patients with any-grade TRAEs (part B R/R DLBCL (N = 23)): 100%
patients with grade 3/4 TRAEs (part B R/R DLBCL (N = 23)): 91%
patients with serious TRAEs (part B R/R DLBCL (N = 23)): 30%
further grade 3 and 4 TRAEs reported in one patient each (part B R/R DLBCL population): Grade 3 abdominal infection, blood bilirubin increased, pneumonia and grade 4 blood creatinine increased, febrile neutropenia, leukopenia, and lymphopenia
TEAE leading to death, not considered related (part C (N = 41)): one
grade 3/4 TRAE thrombocytopenia (part C (N = 41)): 17%
patients with any-grade TRAEs (part C (N = 41)): 98%
patients with grade 3/4 TRAEs (part C (N = 41)): 59%
further grade 3 TRAEs reported in one patient each (part C population): Grade 3 gamma-glutamyl transferase increased, hyperamylasemia, and syncope
TRAE: ALT increased (part C, any grade): 21.95%
TRAE: Anemia (part C, any grade): 12.2%
TRAE: Any TRAE (part C, any grade): 97.56%
TRAE: Asthenia (part C, any grade): 41.46%
TRAE: Decreased appetite (part C, any grade): 34.15%
TRAE: Dehydration (part C, any grade): 0%
TRAE: Dermatitis acneiform (part C, any grade): 17.07%
TRAE: Diarrhoea (part C, any grade): 60.98%
TRAE: Dysgeusia (part C, any grade): 53.66%
TRAE: Fatigue (part C, any grade): 26.83%
TRAE: Hyperglycemia (part C, any grade): 19.51%
TRAE: Hypertension (part C, any grade): 4.88%
TRAE: Hyponatremia (part C, any grade): 2.44%
TRAE: Hypophosphatemia (part C, any grade): 4.88%
TRAE: Nausea (part C, any grade): 60.98%
TRAE: Neutropenia (part C, any grade): 12.2%
TRAE: Platelet count decreased (part C, any grade): 0%
TRAE: Stomatitis (part C, any grade): 56.1%
TRAE: Thrombocytopenia (part C, any grade): 63.41%
TRAE: Vomiting (part C, any grade): 43.9%
patients with any-grade TRAEs [1]: 95%
patients with grade 3/4 TRAEs [1]: 33%
patients with any-grade TRAEs [2]: 91%
patients with grade 3/4 TRAEs [2]: 20%
TRAE: ALT increased (part C, grade 3): 2.44%
TRAE: Anemia (part C, grade 3): 0%
TRAE: Any TRAE (part C, grade 3): 56.1%
TRAE: Asthenia (part C, grade 3): 7.32%
TRAE: Decreased appetite (part C, grade 3): 0%
TRAE: Dehydration (part C, grade 3): 0%
TRAE: Dermatitis acneiform (part C, grade 3): 0%
TRAE: Diarrhoea (part C, grade 3): 4.88%
TRAE: Dysgeusia (part C, grade 3): 0%
TRAE: Fatigue (part C, grade 3): 7.32%
TRAE: Hyperglycemia (part C, grade 3): 4.88%
TRAE: Hypertension (part C, grade 3): 2.44%
TRAE: Hyponatremia (part C, grade 3): 2.44%
TRAE: Hypophosphatemia (part C, grade 3): 4.88%
TRAE: Nausea (part C, grade 3): 4.88%
TRAE: Neutropenia (part C, grade 3): 4.88%
TRAE: Platelet count decreased (part C, grade 3): 0%
TRAE: Stomatitis (part C, grade 3): 4.88%
TRAE: Thrombocytopenia (part C, grade 3): 14.63%
TRAE: Vomiting (part C, grade 3): 2.44%
TRAE: ALT increased (part C, grade 4): 0%
TRAE: Anemia (part C, grade 4): 0%
TRAE: Any TRAE (part C, grade 4): 2.44%
TRAE: Asthenia (part C, grade 4): 0%
TRAE: Decreased appetite (part C, grade 4): 0%
TRAE: Dehydration (part C, grade 4): 0%
TRAE: Dermatitis acneiform (part C, grade 4): 0%
TRAE: Diarrhoea (part C, grade 4): 0%
TRAE: Dysgeusia (part C, grade 4): 0%
TRAE: Fatigue (part C, grade 4): 0%
TRAE: Hyperglycemia (part C, grade 4): 0%
TRAE: Hypertension (part C, grade 4): 0%
TRAE: Hyponatremia (part C, grade 4): 0%
TRAE: Hypophosphatemia (part C, grade 4): 0%
TRAE: Nausea (part C, grade 4): 0%
TRAE: Neutropenia (part C, grade 4): 0%
TRAE: Platelet count decreased (part C, grade 4): 0%
TRAE: Stomatitis (part C, grade 4): 0%
TRAE: Thrombocytopenia (part C, grade 4): 2.44%
TRAE: Vomiting (part C, grade 4): 0%
grade 5 TRAEs (whole study): No grade 5 TRAEs were reported
